The structures appear in SMILES notation. Some results are limits rather than exact numbers.

These results are taken from EP4806898A1, “HETEROARYL DERIVATIVE COMPOUND AND USE THEREOF” (Voronoi Inc., priority 2023, dated 2025).

This experiment concerns the target T1, recombinant USP1 protein (Homo sapiens, UniProt O94782, DEL125-138/DEL229-408/DEL608-737).
T1 sequence (O94782 with tags, fused parts or gaps DEL125-138/DEL229-408/DEL608-737): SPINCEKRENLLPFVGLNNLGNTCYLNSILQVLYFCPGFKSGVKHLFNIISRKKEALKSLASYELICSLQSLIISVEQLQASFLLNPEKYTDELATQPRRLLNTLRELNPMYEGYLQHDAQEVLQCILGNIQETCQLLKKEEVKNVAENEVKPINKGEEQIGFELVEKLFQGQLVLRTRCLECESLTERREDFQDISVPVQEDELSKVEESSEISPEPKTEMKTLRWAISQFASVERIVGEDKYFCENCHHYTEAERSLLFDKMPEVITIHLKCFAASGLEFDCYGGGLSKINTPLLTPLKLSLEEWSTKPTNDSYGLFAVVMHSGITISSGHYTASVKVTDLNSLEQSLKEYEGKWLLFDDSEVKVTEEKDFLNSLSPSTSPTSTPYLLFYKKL
Put plainly: Binding affinity to recombinant USP1 protein by differential scanning fluorimetry. The conditions noted are these: compound 100 µM; 0.03 mg/mL USP1 (Δ1-66, Δ125-138, Δ229-408, Δ608-737); Tm with compound minus Tm with DMSO; read-out: ΔTm (°C). The procedure:
<Experimental Example 1> Confirmation and evaluation of the binding affinity to recombinant USP1 protein
To evaluate the binding affinity of the compounds of the present invention to the USP1 protein, the following experiment was performed using differential scanning fluorimetry.
Recombinant 0.03 mg/mL USP1 (Δ1-66, Δ125-138, Δ229-408, Δ608-737) protein, dye reagent, and buffer solution (50 mM Tris-HCl pH 8.0, 150 mM NaCl, 2% glycerol, 1 mM DTT) were mixed and 19 µL of the mixture was dispensed into a well plate (MicroAmp Fast 96-Well Reaction plate, 0.1 mL). Each compound was injected at a final concentration of 100 µM in an amount of 1 µL, and the plate containing a total of 20 µL was sealed with MicroAmp Optical Adhesive Film. The melting temperature (Tm) of the protein in each well was measured using a real-time PCR (RT-PCR) device. The difference between the Tm of the sample containing the compound and the Tm containing DMSO is referred to as delta Tm (ΔTm), where a larger ΔTm value indicates stronger binding affinity. The degree of temperature at which the protein is modified in the presence of the compound compared to DMSO was calculated according to Equation 1 below: [formula]
Turning to `COc1ncnc(C2CC2)c1-c1ncc2cc(C(=O)NCCS(C)(=O)=O)n(Cc3ccc(-c4nc(C(F)(F)F)cn4C(C)C)cc3)c2n1` [Example 8, 2-(4-cyclopropyl-6-methoxypyrimidin-5-yl)-7-(4-(1-isopropyl-4-(trifluoromethyl)-1H-imidazol-2-yl)benzyl)-N-(2-(methylsulfonyl)ethyl)-7H-pyrrolo[2,3-d]pyrimidine-6-carboxamide], the ΔTm at 100 µM is more than 5 °C.

For the molecule `COc1ncnc(C2CC2)c1-c1ncc2cc(C(=O)N3CC4CCC(C3)N4)n(Cc3ccc(-c4nc(C(F)(F)F)cn4C(C)C)cc3)c2n1` [Example 16, (3,8-diazabicyclo[3 .2.1]octan-3-yl)(2-(4-cyclopropyl-6-methoxypyrimidin-5-yl)-7-(4-(1-isopropyl-4-(trifluoromethyl)-1H-imidazol-2-yl)benzyl)-7H-pyrrolo[2,3-d]pyrimidin-6-yl)methanone], the ΔTm at 100 µM is more than 5 °C. As for `COc1ncnc(C2CC2)c1-c1ncc2cc(C(=O)N3CCS(=O)(=O)CC3)n(Cc3ccc(-c4nc(C(F)(F)F)cn4C(C)C)cc3)c2n1` [Example 27, (2-(4-cyclopropyl-6-methoxypyrimid in-5-yl)-7-(4-(1-isopropyl-4-(trifluoromethyl)-1H-imidazol-2-yl)benzyl)-7H-pyrrolo[2,3-d]pyrimidin-6-yl) (1,1-dioxidothiomor pholino)methanone], the shift in melting temperature (ΔTm) at 100 µM was more than 5 °C.

As for `CNC(=O)c1cc2cnc(-c3c(OC)ncnc3C3CC3)nc2n1Cc1ccc(-n2ccnn2)cc1` [Example 44, 7-(4-(1H-1,2,3-triazol-1-yl)benzyl)-2-(4-cyclopropyl-6-methoxypyrimidin-5-yl)-N-methyl-7H-pyrrolo[2,3-d]pyrimidine-6-carboxamide], the thermal shift (ΔTm) at 100 µM is less than 5 °C. As to `COc1ncnc(C2CC2)c1-c1ncc2cc(C(=O)N3C[C@H]4CC[C@@H](C3)N4C3CC3)n(Cc3ccc(-c4nc(C(F)(F)F)cn4C(C)C)cc3)c2n1` [Example 46, (2-(4-cyclopropyl-6-methoxypyrimid in-5-yl)-7-(4-(1-isopropyl-4-(trifluoromethyl)-1H-imidazol-2-yl)benzyl)-7H-pyrrolo[2,3-d]pyrimidin-6-yl)((1R,5S)-8-cyclopropyl-3,8-diazabicyclo[3 .2.1]octan-3-yl)methanone], the ΔTm at 100 µM was more than 5 °C. As to `COc1ncnc(C2CC2)c1-c1ncc2cc(C(=O)N3CCNCC3)n(Cc3ccc(-c4nc(C(F)(F)F)cn4C(C)C)cc3)c2n1` [Example 54, (2-(4-cyclopropyl-6-methoxypyrimid in-5-yl)-7-(4-(1-isopropyl-4-(trifluoromethyl)-1H-imidazol-2-yl)benzyl)-7H-pyrrolo[2,3-d]pyrimidin-6-yl) (piperazin-1-yl)methanone], the ΔTm at 100 µM is more than 5 °C. Turning to `CNC(=O)c1cc2cnc(-c3c(C4CC4)nc[nH]c3=O)nc2n1Cc1ccc(-c2nc(C(F)(F)F)cn2C(C)C)cc1` [Example 59, 2-(4-cyclopropyl-6-oxo-1,6-dihydropyrimidin-5-yl)-7-(4-(1-isopropyl-4-(trifluoromethyl)-1H-imidazol-2-yl)benzyl)-N-methyl-7H-pyrrolo[2,3-d]pyrimidine-6-carboxamide], the shift in melting temperature (ΔTm) at 100 µM was less than 5 °C.

With `CCn1cnc(C2CC2)c(-c2ncc3cc(C(=O)NC)n(Cc4ccc(-c5nc(C(F)(F)F)cn5C(C)C)cc4)c3n2)c1=O` [Example 62, 2-(4-cyclopropyl-1-ethyl-6-oxo-1,6-dihydropyrimidin-5-yl)-7-(4-(1-isopropyl-4-(trifluoromethyl)-1H-imidazol-2-yl)benzyl)-N-methyl-7H-pyrrolo[2,3-d]pyrimidine-6-carboxamide], the shift in melting temperature (ΔTm) at 100 µM is less than 5 °C.

For `COc1ncnc(C2CC2)c1-c1ncc2cc(C(=O)N3CC(F)(C#N)C3)n(Cc3ccc(-c4nc(C(F)(F)F)cn4C(C)C)cc3)c2n1` [Example 72, 1-(2-(4-cyclopropyl-6-methoxypyrimidin-5-yl)-7-(4-(1-isopropyl-4-(trifluoromethyl)-1H-imidazol-2-yl)benzyl)-7H-pyrrolo[2,3-d]pyrimidine-6-carbonyl)-3-fluoroazetidine-3-carbonitrile], the ΔTm at 100 µM is more than 5 °C.

As for `COc1ncnc(C2CC2)c1-c1ncc2cc(C(=O)NC3CCN(S(C)(=O)=O)CC3)n(Cc3ccc(-c4nc(C(F)(F)F)cn4C(C)C)cc3)c2n1` [Example 74, 2-(4-cyclopropyl-6-methoxypyrimidin-5-yl)-7-(4-(1-isopropyl-4-(trifluoromethyl)-1H-imidazol-2-yl)benzyl)-N-(1-(methylsulfonyl)piperidin-4-yl)-7H-pyrrolo[2,3-d]pyrimidine-6-carboxamide], the ΔTm at 100 µM was more than 5 °C. As for `COc1ncnc(C2CC2)c1-c1ncc2cc(C(=O)N(C)C3CC3)n(Cc3ccc(-c4nc(C(F)(F)F)cn4C(C)C)cc3)c2n1` [Example 76, N-cyclopropyl-2-(4-cyclopropyl-6-methoxypyrimidin-5-yl)-7-(4-(1-isopropyl-4-(trifluoromethyl)-1H-imidazol-2-yl)benzyl)-N-methyl-7H-pyrrolo[2,3-d]pyrimidine-6-carboxamide], the figure is more than 5 °C; as for `COc1ncnc(C2CC2)c1-c1ncc2cc(C(=O)Nc3ccc(CN(C)C)cc3)n(Cc3ccc(-c4nc(C(F)(F)F)cn4C(C)C)cc3)c2n1` [Example 77, 2-(4-cyclopropyl-6-methoxypyrimidin-5-yl)-N-(4-((dimethylamino)methyl)phenyl)-7-(4-(1-isopropyl-4-(trifluoromethyl)-1H-imidazol-2-yl)benzyl)-7H-pyrrolo[2,3-d]pyrimidine-6-carboxamide], more than 5 °C. Regarding `COc1ncnc(C2CC2)c1-c1ncc2cc(C(=O)N[C@H](C)CO)n(Cc3ccc(-c4nc(C(F)(F)F)cn4C(C)C)cc3)c2n1` [Example 81, (R) -2-(4-cyclopropyl-6-methoxypyrimidin-5-yl)-N-(1-hydroxypropan-2-yl)-7-(4-(1-isopropyl-4-(trifluoromethyl)-1H-imidazol-2-yl)benzyl)-7H-pyrrolo[2,3-d]pyrimidine-6-carboxamide], the thermal shift (ΔTm) at 100 µM was more than 5 °C. On to `COc1ncnc(C2CC2)c1-c1ncc2cc(C(=O)N[C@@H](C)CCO)n(Cc3ccc(-c4nc(C(F)(F)F)cn4C(C)C)cc3)c2n1` [Example 91, (S)-2-(4-cyclopropyl-6-methoxypyrimidin-5-yl)-N-(4-hydroxybutan-2-yl)-7-(4-(1-isopropyl-4-(trifluoromethyl)-1H-imidazol-2-yl)benzyl)-7H-pyrrolo[2,3-d]pyrimidine-6-carboxamide], for which the ΔTm at 100 µM is more than 5 °C. As for `COc1ncnc(C2CC2)c1-c1ncc2cc(C(=O)NC3CCS(=O)(=O)CC3)n(Cc3ccc(-c4nc(C(F)(F)F)cn4C(C)C)cc3)c2n1` [Example 93, 2-(4-cyclopropyl-6-methoxypyrimidin-5-yl)-N-(1,1-dioxidotetrahydro-2H-thiopyran-4-yl)-7-(4-(1-isopropyl-4-(trifluoromethyl)-1H-imidazol-2-yl)benzyl)-7H-pyrrolo[2,3-d]pyrimidine-6-carboxamide], the figure is more than 5 °C; as for `COc1ncnc(C2CC2)c1-c1ncc2cc(C(=O)N3CC(C(F)F)C3)n(Cc3ccc(-c4nc(C(F)(F)F)cn4C(C)C)cc3)c2n1` [Example 96, (2-(4-cyclopropyl-6-methoxypyrimid in-5-yl)-7-(4-(1-isopropyl-4-(trifluoromethyl)-1H-imidazol-2-yl)benzyl)-7H-pyrrolo[2,3-d]pyrimidin-6-yl) (3-(difluoromethyl)azetidin-1-yl)methanone], more than 5 °C.

Broadly, the ΔTm is the shift of the melting midpoint relative to a reference.
